This is an account of results in patent US20100210635A1, “RENIN INHIBITORS” (Takeda Pharmaceutical Company Limited, priority 2006, published 2010).

The structures appear in SMILES notation. Bounds are passed on as bounds.

This test addresses T1, Recombinant human renin (Homo sapiens, UniProt P00797).
T1 construct: isolate the active form (residues 67-406); made in house; host or cells: FreeStyle 293-F cells (transient expression of pcDNA3.1(+)/hREN)
T1 sequence (P00797 67-406): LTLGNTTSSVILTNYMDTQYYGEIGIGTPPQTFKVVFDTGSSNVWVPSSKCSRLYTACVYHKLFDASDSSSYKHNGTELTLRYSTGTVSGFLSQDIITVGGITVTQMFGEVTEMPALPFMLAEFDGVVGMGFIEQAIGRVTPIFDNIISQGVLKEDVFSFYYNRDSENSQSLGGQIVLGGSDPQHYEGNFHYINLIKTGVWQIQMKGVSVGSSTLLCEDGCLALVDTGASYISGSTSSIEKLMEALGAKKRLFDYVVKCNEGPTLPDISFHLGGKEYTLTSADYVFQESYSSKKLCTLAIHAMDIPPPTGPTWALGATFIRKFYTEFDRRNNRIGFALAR
Description: In vitro enzymatic activity assay of Renin inhibitors (fluorescence, QXL520/HiLyteFluo488 peptide substrate). It counts as biochemical. To be noted: recombinant human renin 3 nM, 1 μM substrate, 37° C., pH 7.4; values given as ranges; read-out: IC50 of Exemplified Compounds Against Renin. The text has this:
Test compounds in varying concentrations may be reacted with recombinant human renin in the presence of substrate, e.g., QXL520-γ-Abu-Ile-His-Pro-Phe-His-Leu-Val-Ile-His-Thr-Lys (HiLyteFluo488)-Arg-OH (Anaspec, San Jose, Calif.). The reaction can be followed kinetically using fluorescence (excitation λ=485 nm; emission λ=538 nm). Inhibition constants (IC50) may be calculated by non-linear curve fitting of the compound concentrations and fluorescence intensities to the standard IC50 equation.
Solutions of test compounds in varying concentrations (<2 mM final concentration) are prepared in dimethyl sulfoxide (DMSO) and then diluted into assay buffer comprising 50 mM Hepes, 1 mM EDTA, 1 mM DTT, 0.1 mg/ml BSA, 0.01% Brij35, pH 7.4. Alternatively, the assay can be performed with a high BSA concentration, wherein the buffer contains an additional 2% BSA.
Recombinant human renin (3 nM final concentration) is added to the dilutions and pre-incubated with the compounds for 10 minutes at 37° C. As described in Examples A-C above, human Renin can be obtained by expressing preprorenin (residue 1-406) in mammalian cells, treating the prorenin (residues 24-406) contained in the culture supernatant with trypsin, and isolate the active form (residues 67-406). After pre-incubation, the reaction is initiated with 1 μM of substrate QXL520-γ-Abu-Ile-His-Pro-Phe-His-Leu-Val-Ile-His-Thr-Lys (HiLyteFluo488)-Arg-OH (Anaspec, San Jose, Calif.). The final DMSO in the assay is 5%. The total volume of the reaction mixture is 20 μL, which can be placed on Greiner 384-well small volume plates.
Renin activity may be determined via fluorescence (excitation λ=485 nm; emission λ=538 nm), e.g., on a Molecular Devices SPECTROmax GEMINI XPS. The fluorescence intensity is determined upon the addition of substrate and determined again after incubation at 37° C. for one hour. The fluorescence intensity of a blank (no inhibition) using vehicle alone is also determined. Renin activity is linearly proportional to the change in fluorescence observed (final−initial).
The percent inhibition of Renin at a given compound concentration is defined as:
100%×[1−(Fcompound/Fblank)]
where Fcompound is the observed fluorescence at a given concentration of test compound and Fblank is the observed fluorescence in the presence of vehicle alone.
The pIC50 value (negative log of the molar concentration of the compound that produces 50% inhibition) of a test compound is calculated by non-linear least squares curve fitting of the equation: […]
to percent inhibition versus compound concentration. The 50% inhibitory concentration (IC50) of a test compound is calculated by raising 10 to the negative pIC50 (10^−pIC50).

The IC50 is the concentration at which inhibition is half-maximal. Turning to `Cc1nc(-c2ccc(Cl)cc2)c(CCC(=O)N2CCNC[C@H]2Cc2ccccc2)o1` [Example 54, (R)-1-(2-benzylpiperazin-1-yl)-3-(4-(4-chlorophenyl)-2-methyloxazol-5-yl)propan-1-one], the 50% inhibitory concentration (IC50) was 5 to 50 µM.
Regarding `COCCOCCCOc1ccccc1CCC(=O)N1CCNC[C@H]1Cc1ccccc1` [Example 77, (R)-1-(2-benzylpiperazin-1-yl)-3-(2-(3-(2-methoxyethoxy)propoxy)phenyl)propan-1-one], the IC50 fell in the range of 0.5 to 5 µM.
As for `COc1cc(CCC(=O)N2CCNC[C@H]2Cc2ccccc2)ccc1OC(C)=O` [Example 59, (R)-4-(3-(2-benzylpiperazin-1-yl)-3-oxopropyl)-2-methoxyphenyl acetate], the figure is greater than 50 µM; as for `CN(C)c1cccc(Oc2ccccc2CCC(=O)N2CCNC[C@H]2Cc2ccccc2)c1` [Example 31, (R)-1-(2-Benzylpiperazin-1-yl)-3-(2-(3-(dimethylamino)phenoxy)phenyl)propan-1-one], less than 0.5 µM; as for `O=C(CCC1(c2ccccc2)CCCCC1=O)N1CCNC[C@H]1Cc1ccccc1` (stereo partly drawn) [Example 52, 2-(3-((R)-2-benzylpiperazin-1-yl)-3-oxopropyl)-2-phenylcyclohexanone], 5 to 50 µM.
Next, `O=C(O)COc1ccc(C[C@@H]2CNCCN2C(=O)CCc2ccccc2Oc2ccccc2)cc1` [Example 86, (R)-2-(4-((1-(3-(2-phenoxyphenyl)propanoyl)piperazin-2-yl)methyl)phenoxy)acetic acid]: 0.5 to 5 µM.
In the case of `CC(=O)NCCc1cc(C)ccc1Oc1ccc(C)cc1CCC(=O)N1CCNC[C@H]1Cc1ccccc1` [Example 25, (R)—N-(2-(2-(3-(2-Benzylpiperazin-1-yl)-3-oxopropyl)-4-methylphenoxy)-1-methylphenethyl)acetamide], the IC50 was less than 0.5 µM.
As to `O=C(CCc1nc(-c2ccccc2)c(-c2ccccc2)o1)N1CCNC[C@H]1Cc1ccccc1` [Example 63, (R)-1-(2-benzylpiperazin-1-yl)-3-(4,5-diphenyloxazol-2-yl)propan-1-one], the IC50 is 0.5 to 5 µM.
As for `CC(=O)NCc1cc(C)ccc1Oc1ccc(C)cc1CCC(=O)N1CCNC[C@H]1Cc1ccccc1` [Example 43, (R)—N-(2-(2-(3-(2-benzylpiperazin-1-yl)-3-oxopropyl)-4-methylphenoxy)-5-methylbenzyl)acetamide], the 50% inhibitory concentration (IC50) was less than 0.5 µM.
With `CC1(C)CC(CC(=O)N2CCNC[C@H]2Cc2ccccc2)(c2ccccc2)CCO1` (stereo partly drawn) [Example 20, 1-((R)-2-Benzylpiperazin-1-yl)-2-(2,2-dimethyl-4-phenyltetrahydro-2H-pyran-4-yl)ethanone], the concentration for half-maximal inhibition (IC50) is 0.5 to 5 µM.
Take `N#Cc1ccccc1Oc1ccccc1CCC(=O)N1CCNC[C@H]1Cc1ccccc1` [Example 30, (R)-2-(2-(3-(2-benzylpiperazin-1-yl)-3-oxopropyl)phenoxy)benzonitrile]: the IC50 lay within 0.5 to 5 µM.
As for `CC(=O)NCCCc1ccccc1Oc1ccccc1CCC(=O)N1CCNC[C@H]1Cc1ccccc1` [Example 48, (R)—N-(3-(2-(2-(3-(2-benzylpiperazin-1-yl)-3-oxopropyl)phenoxy)-phenyl)propyl)acetamide], the figure is 0.5 to 5 µM; as for `N#CCCc1ccccc1Oc1ccccc1CCC(=O)N1CCNC[C@H]1Cc1ccccc1` [Example 66, (R)-3-(2-(2-(3-(2-benzylpiperazin-1-yl)-3-oxopropyl)phenoxy)phenyl)propanenitrile], less than 0.5 µM; as for `O=S(=O)(CCc1ccccc1)N1CCNC[C@H]1Cc1ccccc1` [Example 12, (R)-2-Benzyl-1-(phenethylsulfonyl)piperazine], 5 to 50 µM.
With `Cc1ccc(Oc2ccccc2CCC(=O)N2CCNC[C@H]2Cc2ccccc2)cc1` [Example 50, (R)-1-(2-benzylpiperazin-1-yl)-3-(2-(p-tolyloxy)phenyl)propan-1-one], the IC50 is less than 0.5 µM.
With `O=C(COc1cccc2ccccc12)N1CCNC[C@H]1Cc1ccccc1` [Example 15, (R)-1-(2-Benzylpiperazin-1-yl)-2-(naphthalen-1-yloxy)ethanone], the half-inhibitory concentration (IC50) fell in the range of 5 to 50 µM.
As for `CC(=O)NCCc1ccccc1Cc1ccccc1CCC(=O)N1CCNC[C@H]1Cc1ccc(-c2nnn[nH]2)cc1` [Example 94, (R)—N-(2-(2-(3-(2-(4-(1H-tetrazol-5-yl)benzyl)piperazin-1-yl)-3-oxopropyl)benzyl)phenethyl)acetamide], the half-inhibitory concentration (IC50) is less than 0.5 µM.
On to `O=C(CCc1ccccc1OCCCO)N1CCNC[C@H]1Cc1ccccc1` [Example 76, (R)-1-(2-benzylpiperazin-1-yl)-3-(2-(3-hydroxypropoxy)phenyl)-propan-1-one], for which the IC50 fell in the range of 0.5 to 5 µM.
Next, `CN(C)C(=O)COc1ccc(C[C@@H]2CNCCN2C(=O)CCc2ccccc2Oc2ccccc2)cc1` [Example 71, (R)—N,N-dimethyl-2-(4-((1-(3-(2-phenoxyphenyl)propanoyl)piperazin-2-yl)methyl)phenoxy)acetamide]: 0.5 to 5 µM; `NC(=O)COc1ccc(C[C@@H]2CNCCN2C(=O)CCc2ccccc2Oc2ccccc2)cc1` [Example 70, (R)-2-(4-((1-(3-(2-phenoxyphenyl)propanoyl)piperazin-2-yl)methyl)phenoxy)acetamide]: less than 0.5 µM.
In the case of `O=C(NC1(CC(=O)N2CCNC[C@H]2Cc2ccccc2)CCCCC1)c1ccccc1` [Example 64, (R)—N-(1-(2-(2-benzylpiperazin-1-yl)-2-oxoethyl)cyclohexyl)benzamide], the concentration for half-maximal inhibition (IC50) is 5 to 50 µM.
As to `CC(=O)c1cccc(Oc2ccccc2CCC(=O)N2CCNC[C@H]2Cc2ccccc2)c1` [Example 36, (R)-3-(2-(3-Acetylphenoxy)phenyl)-1-(2-benzylpiperazin-1-yl)propan-1-one], the concentration for half-maximal inhibition (IC50) was 0.5 to 5 µM.
As for `O=C(NC(c1ccccc1)c1ccccc1)N1CCNC[C@H]1Cc1ccccc1` [Example 10, (R)—N-Benzhydryl-2-benzylpiperazine-1-carboxamide], the figure is greater than 50 µM; as for `O=C(C(Cc1ccccc1)c1ccccc1)N1CCNC[C@H]1Cc1ccccc1` (stereo partly drawn) [Example 6, 1-((R)-2-Benzylpiperazin-1-yl)-2,3-diphenylpropan-1-one], 0.5 to 5 µM.
Regarding `COc1ccc(Oc2ccccc2CCC(=O)N2CCNC[C@H]2Cc2ccccc2)c(CNC(C)=O)c1` [Example 41, (R)—N-(2-(2-(3-(2-benzylpiperazin-1-yl)-3-oxopropyl)phenoxy)-5-methoxybenzyl)acetamide], the IC50 was less than 0.5 µM.
Turning to `O=C(O)CCc1ccccc1Oc1ccccc1CCC(=O)N1CCNC[C@H]1Cc1ccccc1` [Example 82, (R)-3-(2-(2-(3-(2-Benzylpiperazin-1-yl)-3-oxopropyl)phenoxy)phenyl)propanoic acid], the IC50 was 0.5 to 5 µM.
As to `O=C(CCc1ccccc1Oc1ccccc1CO)N1CCNC[C@H]1Cc1ccccc1` [Example 87, (R)-1-(2-benzylpiperazin-1-yl)-3-(2-(2-(hydroxymethyl)phenoxy)phenyl)propan-1-one], the IC50 was less than 0.5 µM.
Consider `COc1ccc(Oc2ccccc2CCC(=O)N2CCNC[C@H]2Cc2ccccc2)cc1` [Example 51, (R)-1-(2-benzylpiperazin-1-yl)-3-(2-(4-methoxyphenoxy)-phenyl)propan-1-one], for which the half-inhibitory concentration (IC50) lay in the range of 0.5 to 5 µM.
Consider `O=C(CSC(c1ccccc1)c1ccccc1)N1CCNC[C@H]1Cc1ccccc1` [Example 65, (R)-2-(benzhydrylthio)-1-(2-benzylpiperazin-1-yl)ethanone], for which the IC50 fell in the range of 0.5 to 5 µM.
As to `CC(=O)NCc1cc(C)ccc1Oc1cc(C)ccc1CCC(=O)N1CCNC[C@H]1Cc1ccccc1` [Example 46, (R)—N-(2-(2-(3-(2-benzylpiperazin-1-yl)-3-oxopropyl)-5-methylphenoxy)-5-methylbenzyl)acetamide], the concentration for half-maximal inhibition (IC50) is less than 0.5 µM.
